Reference: ChEMBL document CHEMBL1156451 (J Biol Chem, 2007)
Values after ≈ are worked out from the molar mass of the structure shown. Active and inactive are the calls of the source. The rule behind the calls is not given here. Where a SMILES comes first, the peptide text is derived from it.

Experiments:
Acinetobacter baumannii = test: Antibacterial activity against Acinetobacter baumannii ATCC 19606 after 24 hrs in Mueller-Hinton broth medium; assay type: functional; settings: ATCC 19606, 24 h
HeLa [1] = test: Cytotoxicity against human HeLa cells at 100 ug/ml after 24 hrs by neutral red uptake assay relative to control; assay type: functional
Escherichia coli [2] = test: Antibacterial activity against Escherichia coli ATCC 25922 after 24 hrs in Mueller-Hinton broth medium; assay type: functional; settings: ATCC 25922, 24 h
[3] = test system: Bordetella bronchiseptica; test: Antibacterial activity against Bordetella bronchiseptica CUN 11844-99 after 24 hrs in Mueller-Hinton broth medium; assay type: functional
Brucella abortus [4] = test: Antibacterial activity against Brucella abortus 9.19 (per-) after 24 hrs in Mueller-Hinton broth medium; assay type: functional
Staphylococcus aureus = test: Antibacterial activity against methicillin-resistant Staphylococcus aureus ATCC 43300 after 24 hrs in Mueller-Hinton broth medium; assay type: functional; settings: ATCC 43300, 24 h
Brucella abortus [5] = test: Antibacterial activity against Brucella abortus 9.49 (per-) after 48 hrs in Mueller-Hinton broth medium; assay type: functional
Escherichia coli [6] = test: Antibacterial activity against Escherichia coli K12 ATCC 23716 after 24 hrs in Mueller-Hinton broth medium; assay type: functional; settings: K12, 24 h
HeLa [7] = test: Cytotoxicity against human HeLa cells at 100 ug/ml after 24 hrs by MTT assay relative to control; assay type: functional
Escherichia coli [8] = test: Antibacterial activity against Escherichia coli K12 ATCC 23716 in 10% Luria-Bertani medium/90% Hepes buffer at pH 7.0; assay type: functional
Pseudomonas aeruginosa = test: Antibacterial activity against Pseudomonas aeruginosa CUN 4158-02 after 24 hrs in Mueller-Hinton broth medium; assay type: functional
[9] = Toxicity in human erythrocytes assessed as hemolysis at 100 ug/ml; assay type: cell-based, Erythrocyte; settings: read-out: Activity

## CC[C@H](C)[C@H](NC(=O)[C@H](CCCNC(=N)N)NC(=O)[C@H](CCCNC(=N)N)NC(=O)[C@H](CO)NC(=O)[C@@H](NC(=O)CNC(=O)[C@H](CCCNC(=N)N)NC(=O)[C@H](CC(C)C)NC(=O)[C@@H](NC(=O)[C@@H](N)CCCNC(=N)N)[C@@H](C)CC)C(C)C)C(=O)N[C@@H](CCSC)C(=O)N[C@@H](CCCNC(=N)N)C(=O)N[C@@H](CCCNC(=N)N)C(=O)N[C@H](C(=O)N[C@@H](CC(C)C)C(=O)N[C@H](C(=O)NCC(=O)N[C@@H](CCCNC(=N)N)C(=O)N[C@@H](CCCNC(=N)N)C(N)=O)[C@@H](C)O)[C@@H](C)CC [RILRGVSRRIM RR ILTGRR] (H-RILRGVSRRIMRRILTGRR-NH2)
Acinetobacter baumannii
  MBC: 8 µg/mL (≈ 3.38 µM)
  MIC: 8 µg/mL (≈ 3.38 µM)
HeLa [1]
  Activity: 13.5%
Escherichia coli [2]
  MBC: 16 µg/mL (≈ 6.77 µM)
  MIC: 16 µg/mL (≈ 6.77 µM)
[3]
  MBC: 4 µg/mL (≈ 1.69 µM)
  MIC: 4 µg/mL (≈ 1.69 µM)
Brucella abortus [4]
  MBC: 32 µg/mL (≈ 13.5 µM)
Staphylococcus aureus
  MBC: 32 µg/mL (≈ 13.5 µM)
  MIC: 32 µg/mL (≈ 13.5 µM)
Brucella abortus [5]
  MIC: 8 µg/mL (≈ 3.38 µM)
Escherichia coli [6]
  MBC: 16 µg/mL (≈ 6.77 µM)
  MIC: 16 µg/mL (≈ 6.77 µM)
HeLa [7]
  Activity: 6.6%
Escherichia coli [8]
  MBC: 16 µg/mL (≈ 6.77 µM)
  MIC: 16 µg/mL (≈ 6.77 µM)
Pseudomonas aeruginosa
  MBC: 128 µg/mL (≈ 54.1 µM)
  MIC: 32 µg/mL (≈ 13.5 µM)

## CC[C@H](C)[C@H](NC(=O)[C@H](CCCCN)NC(=O)[C@H](CCCCN)NC(=O)[C@H](CO)NC(=O)[C@@H](NC(=O)[C@@H](N)CCCCN)[C@@H](C)CC)C(=O)N[C@@H](CCSC)C(=O)N[C@@H](CCCNC(=N)N)C(=O)N[C@H](C(=O)N[C@@H](Cc1ccccc1)C(=O)N[C@@H](CC(C)C)C(=O)N[C@@H](CCCNC(=N)N)C(=O)N[C@@H](CCCNC(=N)N)C(=O)N[C@H](C(=O)N[C@@H](CC(C)C)C(=O)N[C@H](C(=O)NCC(=O)N[C@@H](CCCCN)C(=O)N[C@@H](CCCCN)C(N)=O)[C@@H](C)O)[C@@H](C)CC)[C@@H](C)O (H-KISKKIMRTFLRRILTGKK-NH2)
Acinetobacter baumannii
  MBC: 4 µg/mL (≈ 1.73 µM)
  MIC: 4 µg/mL (≈ 1.73 µM)
HeLa [1]
  Activity: 56.4%
Escherichia coli [2]
  MBC: 16 µg/mL (≈ 6.91 µM)
  MIC: 16 µg/mL (≈ 6.91 µM)
[3]
  MBC: 128 µg/mL (≈ 55.2 µM)
  MIC: 128 µg/mL (≈ 55.2 µM)
Brucella abortus [4]
  MBC: 32 µg/mL (≈ 13.8 µM)
Staphylococcus aureus
  MBC: 256 µg/mL (≈ 110 µM)
  MIC: 256 µg/mL (≈ 110 µM)
Brucella abortus [5]
  MIC: 2 µg/mL (≈ 0.863 µM)
Escherichia coli [6]
  MBC: 8 µg/mL (≈ 3.45 µM)
  MIC: 8 µg/mL (≈ 3.45 µM)
HeLa [7]
  Activity: 21.1%
Escherichia coli [8]
  MBC: 50 µg/mL (≈ 21.6 µM)
  MIC: 25 µg/mL (≈ 10.8 µM)
Pseudomonas aeruginosa
  MBC: 8 µg/mL (≈ 3.45 µM)
  MIC: 8 µg/mL (≈ 3.45 µM)

## CC[C@H](C)[C@H](NC(=O)[C@H](CCCNC(=N)N)NC(=O)[C@H](CCCNC(=N)N)NC(=O)[C@H](CC(C)C)NC(=O)[C@H](Cc1ccccc1)NC(=O)[C@@H](NC(=O)[C@H](CCCNC(=N)N)NC(=O)[C@H](CCSC)NC(=O)[C@@H](NC(=O)[C@H](CCCCN)NC(=O)[C@H](CCCCN)NC(=O)[C@H](CO)NC(=O)[C@@H](NC(=O)CNC(=O)[C@H](CCCNC(=N)N)NC(=O)[C@H](CC(C)C)NC(=O)[C@@H](NC(=O)[C@@H](N)CCCCN)[C@@H](C)CC)C(C)C)[C@@H](C)CC)[C@@H](C)O)C(=O)N[C@@H](CO)C(=O)N[C@@H](CCCCN)C(=O)N[C@@H](CC(=O)O)C(=O)N[C@H](C(=O)N[C@@H](CC(C)C)C(=O)N[C@H](C(=O)NCC(=O)N[C@@H](CCCCN)C(=O)N[C@@H](CCCCN)C(=O)O)[C@@H](C)O)[C@@H](C)CC (H-KILRGVSKKIMRTFLRRISKDILTGKK-OH)
HeLa [1]
  Activity: 6.9%
[9]
  hemolysis at 100 ug/ml: < 5%
HeLa [7]
  Activity: 6.5%
Escherichia coli [8]
  MBC: 8 µg/mL (≈ 2.51 µM)
  MIC: 8 µg/mL (≈ 2.51 µM)

## CC[C@H](C)[C@H](NC(=O)[C@H](CCCCN)NC(=O)[C@@H](N)CCCCN)C(=O)N[C@@H](CCSC)C(=O)N[C@@H](CCCNC(=N)N)C(=O)N[C@H](C(=O)N[C@@H](Cc1ccccc1)C(=O)N[C@@H](CC(C)C)C(=O)N[C@@H](CCCNC(=N)N)C(=O)N[C@@H](CCCNC(=N)N)C(N)=O)[C@@H](C)O (H-KKIMRTFLRR-NH2)
Acinetobacter baumannii
  MBC: > 128 µg/mL
  MIC: > 128 µg/mL
Escherichia coli [2]
  MBC: > 256 µg/mL
  MIC: 256 µg/mL (≈ 190 µM)
[3]
  MBC: > 256 µg/mL
  MIC: > 256 µg/mL
Brucella abortus [4]
  MBC: < 256 µg/mL
Staphylococcus aureus
  MBC: > 256 µg/mL
  MIC: 256 µg/mL (≈ 190 µM)
[9]
  hemolysis at 100 ug/ml: < 5%
Brucella abortus [5]
  MIC: 128 µg/mL (≈ 95 µM)
Escherichia coli [6]
  MBC: 256 µg/mL (≈ 190 µM)
  MIC: 256 µg/mL (≈ 190 µM)
HeLa [7]
  Activity: inactive
Escherichia coli [8]
  MBC: 50 µg/mL (≈ 37.1 µM)
  MIC: 25 µg/mL (≈ 18.5 µM)
Pseudomonas aeruginosa
  MBC: > 256 µg/mL
  MIC: > 256 µg/mL
